What was measured:
[1] = test system: biofilm-forming microbe isolated from cooling water taken from a water cooling tower; assay: Biofilm inhibition test, quinone-based compound and organic solvent (OD570); format: cell-based; details: alone or added as test solution in organic solvent, no addition gave 2.831
Method: A biofilm-forming microbe (microbe providing a OD570 value of 0.3 or more in the test for determining the amount of biofilm in the following section 4-3) isolated from cooling water taken from a water cooling tower was cultured in R2A culture medium at 30° C. for 16 hours while shaking. The turbidity (OD600) of the resultant culture solution was measured. The culture solution was diluted with R2A culture medium to prepare a suspension of 10^3 cfu/mL.
The suspension of a test microbe prepared in the above section 4-1) was added in individual wells of a 96 well microplate in an amount of 150 μL. Thereafter, the test solution prepared in the above section 2) was add and culture was initiated.
The 96 well microplate was subjected to stationary culture performed at 30° C. for 48 hours. The culture solution was removed and the resultant microplate was washed with water. Subsequently, each well was stained with 0.1% crystal violet and 200 μL of ethanol was added. The absorbance (OD570) was measured to obtain the amount of biofilm (BF) formed.

[2] = test system: Pseudomonas PAO1 strain (ATCC 15692); assay: Growth of test microbe (turbidity OD600), 96-well microplate culture; format: cell-based
In short: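 P. aeruginosa PAO1 diluted in Mueller Hinton Broth, exposed to test compound (ethanol stock evaporated onto DMSO in wells) and grown static at 30° C for 24 h; growth read as OD600. Growth inhibition % = (1 − compound OD600/ethanol-control OD600) × 100.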

SMILES: CC1=CC(=O)C=CC1=O [Compound a, p-Toluquinone]
- OD570 ([1]; Toluquinone 10 ppm): 0.119
- OD570 ([1]; Toluquinone 20 ppm): 0.083
- Growth OD600 ([2]; final concentration 7 ppm, EtOH control 0.5913): 0.645
- Growth inhibition (%) ([2]; final concentration 17 ppm): 14.2%
- Growth OD600 ([2]; final concentration 20 ppm, EtOH control 0.6346): 0.5907
- Growth inhibition (%) ([2]; final concentration 33 ppm): 15.4%
- Growth OD600 ([2]; final concentration 33 ppm, EtOH control 0.668): 0.6284
- Growth inhibition (%) ([2]; final concentration 66 ppm): — (No growth inhibition or no BF inhibition)
- Growth OD600 ([2]; final concentration 67 ppm, EtOH control 0.628): 0.5489
- Growth inhibition (%) ([2]; final concentration 99 ppm): — (No growth inhibition or no BF inhibition)
- Growth inhibition (%) ([2]; final concentration 116 ppm): 1.8%
- Growth inhibition (%) ([2]; final concentration 132 ppm): 1.2%
- Growth OD600 ([2]; final concentration 200 ppm, EtOH control 0.6045): 0.3857
- Growth OD600 ([2]; final concentration 333 ppm, EtOH control 0.6088): 0.3334
- microbial growth (in words) ([2]; high concentration range of 200 ppm or more): inhibited
